Measured values from patent US20110082329A1, “Modification of Sperm Motility and Its Storage Shelf Time” (priority 2008, published 2011).

Experiments:
[1] = system: human sperm from ejaculates of healthy donors; test: Human sperm motility by video microscopy / CASA; format: cell-based; conditions: control = 100%
Procedure: (§1) Animals were washed by sequential immersion into 100 ml cold (approximately 5° C.) sperm storage buffer (SSB) pH 6.0. Used SSB composition: 50 mmol/L KCl, 5.0 mmol/L N-tris(hydroxymethyl)methyl-3-aminopropanesulphonic acid (TAPS), 425 mmol/L NaCl, 27 mmol/L MgCl2, 29 mmol/L MgSO4, 10 mmol/L CaCl2 and 2.4 mmol/L NaHCO3. Shedding of gametes was induced by intracoelomic injection of 2.0 ml cold 0.5 mol/L KCl through several sites on the peristomial membrane of the oral side. Sperm were collected by inverting male sea urchins over beakers containing approximately 100 ml cold MES sperm storage buffer (MSSB) pH 6.0. Used MSSB composition: 50 mmol/L KCl, 5.0 mM 2-[N-morpholino]ethanesulphonic acid (MES), 5.0 mmol/L TAPS, 425 mmol/L NaCl, 27 mmol/L MgCl2, 29 mmol/L MgSO4, 10 mmol/L CaCl2 and 2.4 mmol/L NaHCO3. A pool of sperm from several animals was made to minimize individual variations. Sperms were incubated in room temperature for 20 min. in 0.1-10 ml fractions diluted with 0.1-1000 ml activation buffer (ASW) pH 8.3. ASW composition: 50 mmol/L KCl, 5.0 mmol/L TAPS, 425 mmol/L NaCl, 27 mmol/L MgCl2, 29 mmol/L MgSO4, 10 mmol/L CaCl2, 2.4 mmol/L NaHCO3 and 1.0 mg/ml bovine serum albumin (BSA). The activation buffer contains the appropriate metal ions in a given concentration. […] Metal ions were used as Cl^− salts. Video microscopy was performed at room temperature (22° C.) using a Nikon Diaphot inverted microscope with 20× BM phase objective and 1× video adapter connected to a Dage CCD72 camera. […] The video signal was sent via a video time clock to a Panasonic VHS video recorder. Motility was recorded on multiple viewing fields for 15 sec per field until the recorded total sperm number reached 400. Video tapes were analyzed using CellTrack system. Measurements were carried out in triplicates. Sperm motility is expressed in %, where control values represent 100% (Bracho et al.: “A Method for Preparation, Storage and Activation of Large Populations of Immotile Sea Urchin Sperm”, BBRC 237, 59-62 (1997)).
Sperms originating from ejaculates (2.0-5.0 ml) of healthy donors are diluted with 2.0-1000 ml cold MSSB buffer following liquidification and homogenized without modification of motility. From this point, sample handling and motility measurement is carried out as described in example#1.
(§2) Measurements are carried out using CASA (Computer Assisted Sperm Analysis) method within 12 hours following sperm collection or ejaculation.

sea urchin sperm = test: Sea urchin sperm motility time course: storage in high Ni^2+, then 100-fold dilution; format: cell-based, Lytechinus pictus; conditions: time point 0 = 100%
Procedure: as §1
a) Preparations of sea urchin sperm are produced as described in example 1. Motility measurements are carried out in predetermined time points as described in example#1 starting from time point 0. The activation buffer at time point 0 is supplemented with 20 mmol/L Ni^2+ as NiCl2. After 4 hours, sperm suspensions are diluted 100-fold with activation buffer, achieving 200 μmol/L final Ni^2+ concentration. Measurements of motility are carried out further. Sperm motility is expressed in %, where control values at time point 0 represent 100%.

[2] = system: sea urchins (Lytechinus pictus) sperms; test: Sea urchin sperm motility by video microscopy / CASA; format: cell-based; conditions: control = 100%
Procedure: Sperms originating from ripe sea urchins (Lytechinus pictus) showing genetic and functional similarity to human and animal sperms are used (R. Felix: Reproduction 129, 251-262 (2005).
as §1, §2

[3] = system: sea urchins (Lytechinus pictus) sperms; test: as above; format: cell-based

SMILES | motility (%) ([1]; 1 μmol/L metal ion) | motility (%) ([1]; 10 μmol/L metal ion) | motility (%) ([1]; 100 μmol/L metal ion) | motility (%) ([1]; 1 mmol/L metal ion) | motility (%) ([1]; 10 mmol/L metal ion) | motility (%) ([2]; 1 μmol/L metal ion) | motility (%) ([2]; 10 μmol/L metal ion) | motility (%) ([2]; 100 μmol/L metal ion) | motility (%) ([2]; 1 mmol/L metal ion) | motility (%) ([2]; 10 mmol/L metal ion) | further results
[Ni+2] [Ni^2+] | 105.7 | 126.9 | 129.5 | 93.2 | 88.9 | 111.4 | 127.3 | 132.0 | 98.6 | 85.2 | motility (%) (sea urchin sperm; time 0:20, 20 mmol/L Ni^2+): 99.0%; motility (%) (sea urchin sperm; time 1:00, 20 mmol/L Ni^2+): 85.7%; motility (%) (sea urchin sperm; time 2:00, 20 mmol/L Ni^2+): 86.8%; motility (%) (sea urchin sperm; time 3:00, 20 mmol/L Ni^2+): 81.6%; motility (%) (sea urchin sperm; time 4:00, 20 mmol/L Ni^2+): 76.3%; motility (%) (sea urchin sperm; time 4:20, after 100-fold dilution at 4 hours to 200 μmol/L Ni^2+): 102.6%; motility (%) (sea urchin sperm; time 5:00, after 100-fold dilution at 4 hours to 200 μmol/L Ni^2+): 119.0%; motility (%) (sea urchin sperm; time 6:00, after 100-fold dilution at 4 hours to 200 μmol/L Ni^2+): 123.5%; motility (%) (sea urchin sperm; time 7:00, after 100-fold dilution at 4 hours to 200 μmol/L Ni^2+): 123.0%; motility (%) (sea urchin sperm; time 8:00, after 100-fold dilution at 4 hours to 200 μmol/L Ni^2+): 120.6%
[Co+2] [Co^2+] | 106.2 | 112.7 | 122.5 | 98.2 | 91.0 | 108.6 | 118.2 | 127.5 | 101.1 | 92.9 | –
[Zn+2] [Zn^2+] | – | – | – | – | – | – | – | – | – | – | motility (%) ([3]; 16 μmol/L Zn^2+, control printed as 64.3): 51.0%
[Cd+2] [Cd^2+] | – | – | – | – | – | – | – | – | – | – | motility (%) ([3]; 3.5 μmol/L Cd^2+, control printed as 64.0): 49.1%
